According to PubChem BioAssay (NCI):
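96-well plates; 48 h exposure; 5 concentrations. Endpoints by linear interpolation between flanking doses. Not reached: highest tested concentration assigned. GI50: concentration for 50% inhibition of growth. TGI marks complete inhibition of growth.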

What was measured:
Test in all cases: NCI-60 cell line screen, 48 h
[1] = tested on: 786-0 renal
[2] = tested on: A498 renal
[3] = tested on: ACHN renal
[4] = tested on: BT-549 breast
[5] = tested on: CAKI-1 renal
[6] = tested on: CCRF-CEM leukemia
[7] = tested on: COLO 205 colon
[8] = tested on: DU-145 prostate
[9] = tested on: EKVX NSCLC
[10] = tested on: HCC-2998 colon
[11] = tested on: HCT-116 colon
[12] = tested on: HCT-15 colon
[13] = tested on: HL-60(TB) leukemia
[14] = tested on: HOP-62 NSCLC
[15] = tested on: HS 578T breast
[16] = tested on: HT29 colon
[17] = tested on: K-562 leukemia
[18] = tested on: KM12 colon
[19] = tested on: LOX IMVI melanoma
[20] = tested on: M14 melanoma
[21] = tested on: MALME-3M melanoma
[22] = tested on: MCF7 breast
[23] = tested on: MDA-MB-231 breast
[24] = tested on: MDA-MB-435
[25] = tested on: MOLT-4 leukemia
[26] = tested on: NCI-H226 lung
[27] = tested on: NCI-H23 lung
[28] = tested on: NCI-H460 lung
[29] = tested on: NCI-H522 lung
[30] = tested on: NCI/ADR-RES ovarian
[31] = tested on: OVCAR-3 ovarian
[32] = tested on: OVCAR-4 ovarian
[33] = tested on: OVCAR-5 ovarian
[34] = tested on: OVCAR-8 ovarian
[35] = tested on: PC-3 prostate
[36] = tested on: SF-268 CNS
[37] = tested on: SF-295 CNS
[38] = tested on: SF-539 CNS
[39] = tested on: SK-MEL-2 melanoma
[40] = tested on: SK-MEL-28 melanoma
[41] = tested on: SK-MEL-5 melanoma
[42] = tested on: SK-OV-3 ovarian
[43] = tested on: SN12C renal
[44] = tested on: SNB-19 CNS
[45] = tested on: SNB-75 CNS
[46] = tested on: SR leukemia
[47] = tested on: SW-620 colon
[48] = tested on: T-47D breast
[49] = tested on: TK-10 renal
[50] = tested on: U251 CNS
[51] = tested on: UACC-257 melanoma
[52] = tested on: UACC-62 melanoma
[53] = tested on: UO-31 renal

O=C(O)c1ccc2nc(-c3ccc(OCCCCCOc4ccc(-c5nc6ccc(C(=O)O)cc6[nH]5)cc4)cc3)[nH]c2c1 showed a GI50 [1] greater than 100 µM, a TGI [1] greater than 100 µM and a GI50 [2] greater than 100 µM. It also gave a TGI [2] greater than 100 µM, a GI50 [3] greater than 100 µM and a TGI [3] greater than 100 µM. It also gave a GI50 [4] greater than 100 µM, a TGI [4] greater than 100 µM and a GI50 [5] greater than 100 µM. For the same compound, the TGI [5] was greater than 100 µM, the GI50 [6] was 18.8 µM and the TGI [6] was 44.2 µM. The GI50 [7] was greater than 100 µM, the TGI [7] was greater than 100 µM and the GI50 [8] was greater than 100 µM. For the same compound, the TGI [8] was greater than 100 µM, the GI50 [9] was greater than 100 µM and the TGI [9] was greater than 100 µM. For the same compound, the GI50 [10] was greater than 100 µM, the TGI [10] was greater than 100 µM and the GI50 [11] was greater than 100 µM. The TGI [11] was greater than 100 µM, the GI50 [12] was greater than 100 µM and the TGI [12] was greater than 100 µM. For the same compound, the GI50 [13] was greater than 100 µM, the TGI [13] was greater than 100 µM and the GI50 [14] was greater than 100 µM. The TGI [14] was greater than 100 µM, the GI50 [15] was greater than 100 µM and the TGI [15] was greater than 100 µM. It also gave a GI50 [16] greater than 100 µM, a TGI [16] greater than 100 µM and a GI50 [17] of 22.3 µM. The TGI [17] was greater than 100 µM, the GI50 [18] was greater than 100 µM and the TGI [18] was greater than 100 µM. For the same compound, the GI50 [19] was greater than 100 µM, the TGI [19] was greater than 100 µM and the GI50 [20] was greater than 100 µM. The TGI [20] was greater than 100 µM, the GI50 [21] was greater than 100 µM and the TGI [21] was greater than 100 µM. For the same compound, the GI50 [22] was greater than 100 µM, the TGI [22] was greater than 100 µM and the GI50 [23] was greater than 100 µM. For the same compound, the TGI [23] was greater than 100 µM, the GI50 [24] was greater than 100 µM and the TGI [24] was greater than 100 µM. It also gave a GI50 [25] of 29.7 µM, a TGI [25] greater than 100 µM and a GI50 [26] greater than 100 µM. The TGI [26] was greater than 100 µM, the GI50 [27] was greater than 100 µM and the TGI [27] was greater than 100 µM. It also gave a GI50 [28] greater than 100 µM, a TGI [28] greater than 100 µM and a GI50 [29] greater than 100 µM. The TGI [29] was greater than 100 µM, the GI50 [30] was greater than 100 µM and the TGI [30] was greater than 100 µM. The GI50 [31] was greater than 100 µM, the TGI [31] was greater than 100 µM and the GI50 [32] was greater than 100 µM. For the same compound, the TGI [32] was greater than 100 µM, the GI50 [33] was greater than 100 µM and the TGI [33] was greater than 100 µM. The GI50 [34] was greater than 100 µM, the TGI [34] was greater than 100 µM and the GI50 [35] was greater than 100 µM. The TGI [35] was greater than 100 µM, the GI50 [36] was greater than 100 µM and the TGI [36] was greater than 100 µM. The GI50 [37] was greater than 100 µM, the TGI [37] was greater than 100 µM and the GI50 [38] was greater than 100 µM. It also gave a TGI [38] greater than 100 µM, a GI50 [39] greater than 100 µM and a TGI [39] greater than 100 µM. The GI50 [40] was greater than 100 µM, the TGI [40] was greater than 100 µM and the GI50 [41] was greater than 100 µM. It also gave a TGI [41] greater than 100 µM, a GI50 [42] greater than 100 µM and a TGI [42] greater than 100 µM. For the same compound, the GI50 [43] was greater than 100 µM, the TGI [43] was greater than 100 µM and the GI50 [44] was greater than 100 µM. It also gave a TGI [44] greater than 100 µM, a GI50 [45] greater than 100 µM and a TGI [45] greater than 100 µM. The GI50 [46] was 22.3 µM, the TGI [46] was 48.6 µM and the GI50 [47] was greater than 100 µM. The TGI [47] was greater than 100 µM, the GI50 [48] was greater than 100 µM and the TGI [48] was greater than 100 µM. The GI50 [49] was greater than 100 µM, the TGI [49] was greater than 100 µM and the GI50 [50] was greater than 100 µM. For the same compound, the TGI [50] was greater than 100 µM, the GI50 [51] was greater than 100 µM and the TGI [51] was greater than 100 µM. It also gave a GI50 [52] greater than 100 µM, a TGI [52] greater than 100 µM and a GI50 [53] greater than 100 µM. For the same compound, the TGI [53] was greater than 100 µM.
